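Compound exposure: 48 hours, 5 concentrations, 96-well plates. TGI: total growth inhibition.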
How the values were obtained:
Experiment in all cases: NCI tumour cell line growth inhibition, 48 h
OVCAR-8 ovarian = tested on: OVCAR-8 ovarian
K-562 leukemia = tested on: K-562 leukemia
HCC-2998 colon = tested on: HCC-2998 colon
SNB-75 CNS = tested on: SNB-75 CNS
M14 melanoma = tested on: M14 melanoma
ACHN renal = tested on: ACHN renal
NCI-H23 lung = tested on: NCI-H23 lung
786-0 renal = tested on: 786-0 renal
COLO 205 colon = tested on: COLO 205 colon
NCI/ADR-RES ovarian = tested on: NCI/ADR-RES ovarian
SN12C renal = tested on: SN12C renal
MALME-3M melanoma = tested on: MALME-3M melanoma
TK-10 renal = tested on: TK-10 renal
KM12 colon = tested on: KM12 colon
MDA-MB-435 = tested on: MDA-MB-435
NCI-H460 lung = tested on: NCI-H460 lung
BT-549 breast = tested on: BT-549 breast
SK-MEL-5 melanoma = tested on: SK-MEL-5 melanoma
DU-145 prostate = tested on: DU-145 prostate
HS 578T breast = tested on: HS 578T breast
OVCAR-4 ovarian = tested on: OVCAR-4 ovarian
HT29 colon = tested on: HT29 colon
CAKI-1 renal = tested on: CAKI-1 renal
UACC-62 melanoma = tested on: UACC-62 melanoma
SK-MEL-28 melanoma = tested on: SK-MEL-28 melanoma
SW-620 colon = tested on: SW-620 colon
UACC-257 melanoma = tested on: UACC-257 melanoma
IGROV1 ovarian = tested on: IGROV1 ovarian
CCRF-CEM leukemia = tested on: CCRF-CEM leukemia
MCF7 breast = tested on: MCF7 breast
SF-539 CNS = tested on: SF-539 CNS
PC-3 prostate = tested on: PC-3 prostate
HCT-116 colon = tested on: HCT-116 colon
RXF 393 renal = tested on: RXF 393 renal
SNB-19 CNS = tested on: SNB-19 CNS
NCI-H522 lung = tested on: NCI-H522 lung
MDA-N = tested on: MDA-N
U251 CNS = tested on: U251 CNS
OVCAR-5 ovarian = tested on: OVCAR-5 ovarian
HL-60(TB) leukemia = tested on: HL-60(TB) leukemia
MOLT-4 leukemia = tested on: MOLT-4 leukemia
LOX IMVI melanoma = tested on: LOX IMVI melanoma
HOP-92 NSCLC = tested on: HOP-92 NSCLC
SF-268 CNS = tested on: SF-268 CNS
EKVX NSCLC = tested on: EKVX NSCLC
OVCAR-3 ovarian = tested on: OVCAR-3 ovarian
SK-OV-3 ovarian = tested on: SK-OV-3 ovarian
T-47D breast = tested on: T-47D breast
A549 NSCLC = tested on: A549 NSCLC
NCI-H226 lung = tested on: NCI-H226 lung
UO-31 renal = tested on: UO-31 renal
SF-295 CNS = tested on: SF-295 CNS
HCT-15 colon = tested on: HCT-15 colon
A498 renal = tested on: A498 renal
SK-MEL-2 melanoma = tested on: SK-MEL-2 melanoma
MDA-MB-231 breast = tested on: MDA-MB-231 breast
HOP-62 NSCLC = tested on: HOP-62 NSCLC
RPMI-8226 leukemia = tested on: RPMI-8226 leukemia
SR leukemia = tested on: SR leukemia

With `N[C@@H]1c2c(Br)sc(Br)c2[C@H](O)[C@@H]1O` the TGI (OVCAR-8 ovarian) was > 100 µM, the TGI (K-562 leukemia) was > 100 µM and the TGI (HCC-2998 colon) was > 100 µM. For the same molecule, the TGI (SNB-75 CNS) was > 100 µM, the TGI (M14 melanoma) was > 100 µM and the TGI (ACHN renal) was > 100 µM. The TGI (NCI-H23 lung) was > 100 µM, the TGI (786-0 renal) was > 100 µM and the TGI (COLO 205 colon) was > 100 µM. For the same molecule, the TGI (NCI/ADR-RES ovarian) was > 100 µM, the TGI (SN12C renal) was > 100 µM and the TGI (MALME-3M melanoma) was > 100 µM. For the same molecule, the TGI (TK-10 renal) was > 100 µM, the TGI (KM12 colon) was > 100 µM and the TGI (MDA-MB-435) was > 100 µM. The TGI (NCI-H460 lung) was > 100 µM, the TGI (BT-549 breast) was > 100 µM and the TGI (SK-MEL-5 melanoma) was > 100 µM. The TGI (DU-145 prostate) was > 100 µM, the TGI (HS 578T breast) was > 100 µM and the TGI (OVCAR-4 ovarian) was > 100 µM. The TGI (HT29 colon) was > 100 µM, the TGI (CAKI-1 renal) was > 100 µM and the TGI (UACC-62 melanoma) was > 100 µM. The TGI (SK-MEL-28 melanoma) was > 100 µM, the TGI (SW-620 colon) was > 100 µM and the TGI (UACC-257 melanoma) was > 100 µM. For the same molecule, the TGI (IGROV1 ovarian) was > 100 µM, the TGI (CCRF-CEM leukemia) was > 100 µM and the TGI (MCF7 breast) was > 100 µM. For the same molecule, the TGI (SF-539 CNS) was > 100 µM, the TGI (PC-3 prostate) was > 100 µM and the TGI (HCT-116 colon) was > 100 µM. For the same molecule, the TGI (RXF 393 renal) was > 100 µM, the TGI (SNB-19 CNS) was > 100 µM and the TGI (NCI-H522 lung) was > 100 µM. The TGI (MDA-N) was > 100 µM, the TGI (U251 CNS) was > 100 µM and the TGI (OVCAR-5 ovarian) was > 100 µM. For the same molecule, the TGI (HL-60(TB) leukemia) was > 100 µM, the TGI (MOLT-4 leukemia) was > 100 µM and the TGI (LOX IMVI melanoma) was > 100 µM. For the same molecule, the TGI (HOP-92 NSCLC) was > 100 µM, the TGI (SF-268 CNS) was > 100 µM and the TGI (EKVX NSCLC) was > 100 µM. For the same molecule, the TGI (OVCAR-3 ovarian) was > 100 µM, the TGI (SK-OV-3 ovarian) was > 100 µM and the TGI (T-47D breast) was > 100 µM. The TGI (A549 NSCLC) was > 100 µM, the TGI (NCI-H226 lung) was > 100 µM and the TGI (UO-31 renal) was > 100 µM. The TGI (SF-295 CNS) was > 100 µM, the TGI (HCT-15 colon) was > 100 µM and the TGI (A498 renal) was > 100 µM. The TGI (SK-MEL-2 melanoma) was > 100 µM and the TGI (MDA-MB-231 breast) was > 100 µM.
With `O=C(CCCCCCCCC(=O)NN1C(=O)/C(=C\c2ccc(O)c(O)c2)SC1c1c(O)ccc2ccccc12)NN1C(=O)C(=Cc2ccc(O)c(O)c2)SC1c1c(O)ccc2ccccc12` (stereo not given) the TGI (OVCAR-8 ovarian) was > 100 µM, the TGI (K-562 leukemia) was > 60.8 µM and the TGI (HCC-2998 colon) was > 100 µM. The TGI (SNB-75 CNS) was > 100 µM, the TGI (M14 melanoma) was > 48.5 µM and the TGI (ACHN renal) was > 100 µM. For the same molecule, the TGI (NCI-H23 lung) was 95.1 µM, the TGI (786-0 renal) was > 70 µM and the TGI (COLO 205 colon) was 73.5 µM. The TGI (NCI/ADR-RES ovarian) was > 100 µM, the TGI (SN12C renal) was > 87.4 µM and the TGI (HOP-62 NSCLC) was > 36.8 µM. For the same molecule, the TGI (MALME-3M melanoma) was 74 µM, the TGI (TK-10 renal) was > 100 µM and the TGI (KM12 colon) was > 100 µM. For the same molecule, the TGI (MDA-MB-435) was > 100 µM, the TGI (NCI-H460 lung) was > 100 µM and the TGI (BT-549 breast) was > 100 µM. For the same molecule, the TGI (SK-MEL-5 melanoma) was 19.4 µM, the TGI (DU-145 prostate) was > 59.8 µM and the TGI (OVCAR-4 ovarian) was > 100 µM. For the same molecule, the TGI (HT29 colon) was > 100 µM, the TGI (CAKI-1 renal) was > 100 µM and the TGI (UACC-62 melanoma) was 45.6 µM. For the same molecule, the TGI (SK-MEL-28 melanoma) was > 100 µM, the TGI (SW-620 colon) was > 100 µM and the TGI (UACC-257 melanoma) was > 92.7 µM. The TGI (IGROV1 ovarian) was > 55.5 µM, the TGI (CCRF-CEM leukemia) was 6.32 µM and the TGI (MCF7 breast) was > 100 µM. The TGI (SF-539 CNS) was 97.2 µM, the TGI (PC-3 prostate) was > 100 µM and the TGI (HCT-116 colon) was > 100 µM. For the same molecule, the TGI (RXF 393 renal) was > 57.6 µM, the TGI (SNB-19 CNS) was > 70.3 µM and the TGI (NCI-H522 lung) was 30.7 µM. The TGI (MDA-N) was > 100 µM, the TGI (U251 CNS) was > 54.4 µM and the TGI (OVCAR-5 ovarian) was > 100 µM. The TGI (MOLT-4 leukemia) was > 29.8 µM, the TGI (LOX IMVI melanoma) was 13 µM and the TGI (HOP-92 NSCLC) was > 62.7 µM. For the same molecule, the TGI (SF-268 CNS) was > 100 µM, the TGI (RPMI-8226 leukemia) was 21.1 µM and the TGI (EKVX NSCLC) was > 100 µM. For the same molecule, the TGI (SR leukemia) was > 30.8 µM, the TGI (OVCAR-3 ovarian) was > 32.9 µM and the TGI (SK-OV-3 ovarian) was > 86.8 µM. For the same molecule, the TGI (T-47D breast) was 62.1 µM, the TGI (A549 NSCLC) was > 37.1 µM and the TGI (NCI-H226 lung) was > 100 µM. For the same molecule, the TGI (UO-31 renal) was 26.8 µM, the TGI (SF-295 CNS) was > 100 µM and the TGI (HCT-15 colon) was > 100 µM. For the same molecule, the TGI (A498 renal) was 75.9 µM, the TGI (SK-MEL-2 melanoma) was > 38.6 µM and the TGI (MDA-MB-231 breast) was > 87.7 µM.
`CCCCCCOc1ccc(NC2=C(Cl)C(=O)c3cccnc3C2=O)cc1` was tested, and the TGI (OVCAR-8 ovarian) was 4.56 µM, the TGI (K-562 leukemia) was > 10 µM and the TGI (HCC-2998 colon) was 3.1 µM. For the same molecule, the TGI (SNB-75 CNS) was 2.79 µM, the TGI (M14 melanoma) was 2.87 µM and the TGI (ACHN renal) was 4.38 µM. For the same molecule, the TGI (NCI-H23 lung) was 3.7 µM, the TGI (786-0 renal) was 2.8 µM and the TGI (SN12C renal) was 4.08 µM. It also gave a TGI (HOP-62 NSCLC) of 5.83 µM, a TGI (MALME-3M melanoma) of 4.85 µM and a TGI (TK-10 renal) of 9.49 µM. The TGI (KM12 colon) was 2.97 µM, the TGI (MDA-MB-435) was 3.62 µM and the TGI (NCI-H460 lung) was 3.8 µM. For the same molecule, the TGI (BT-549 breast) was > 10 µM, the TGI (SK-MEL-5 melanoma) was 2.31 µM and the TGI (DU-145 prostate) was 2.9 µM. The TGI (HS 578T breast) was > 10 µM, the TGI (HT29 colon) was 6.66 µM and the TGI (UACC-62 melanoma) was 3.28 µM. For the same molecule, the TGI (SK-MEL-28 melanoma) was 5.03 µM, the TGI (SW-620 colon) was 3.88 µM and the TGI (UACC-257 melanoma) was 5.21 µM. For the same molecule, the TGI (IGROV1 ovarian) was 3.62 µM, the TGI (CCRF-CEM leukemia) was > 10 µM and the TGI (MCF7 breast) was 2.65 µM. For the same molecule, the TGI (SF-539 CNS) was 4.19 µM, the TGI (PC-3 prostate) was > 10 µM and the TGI (HCT-116 colon) was 2.09 µM. For the same molecule, the TGI (RXF 393 renal) was 2.77 µM, the TGI (SNB-19 CNS) was > 10 µM and the TGI (MDA-N) was 3.18 µM. The TGI (U251 CNS) was 7.29 µM, the TGI (OVCAR-5 ovarian) was 5.01 µM and the TGI (HL-60(TB) leukemia) was 3.78 µM. The TGI (MOLT-4 leukemia) was > 10 µM, the TGI (LOX IMVI melanoma) was 2.81 µM and the TGI (HOP-92 NSCLC) was 3.53 µM. The TGI (SF-268 CNS) was 5.31 µM, the TGI (RPMI-8226 leukemia) was 2.53 µM and the TGI (EKVX NSCLC) was 3.22 µM. For the same molecule, the TGI (OVCAR-3 ovarian) was 2.85 µM, the TGI (SK-OV-3 ovarian) was > 10 µM and the TGI (T-47D breast) was 3.78 µM. For the same molecule, the TGI (A549 NSCLC) was 4.25 µM, the TGI (NCI-H226 lung) was 3.58 µM and the TGI (UO-31 renal) was 2.47 µM. For the same molecule, the TGI (SF-295 CNS) was > 10 µM, the TGI (HCT-15 colon) was 3.96 µM and the TGI (A498 renal) was > 10 µM. The TGI (SK-MEL-2 melanoma) was 4.43 µM.

Reference: PubChem BioAssay (NCI)
